Source: the NIST ThermoML archive (doi:10.1021/je0601208)
± gives the expanded uncertainty stated by the source.

How the values were obtained:
[1] = xn = mol fraction of the nth substance listed
[2] = refractive index (Na D-line) (dimensionless); xn = mol fraction of the nth substance listed; settings: 100.5 kPa, Liquid, Standard Abbe refractometry

CCCCCCCC(=O)OCC [ethyl octanoate] + CCO
Settings	refractive index, 288.15 K	refractive index, 298.15 K	refractive index, 308.15 K	refractive index, 318.15 K	surface tension liquid-gas, 288.15 K [mN/m]	surface tension liquid-gas, 298.15 K [mN/m]	surface tension liquid-gas, 308.15 K [mN/m]	surface tension liquid-gas, 318.15 K [mN/m]
[1], x1 = 0.05	–	–	–	–	23.6 ± 0.6	22.9 ± 0.6	22 ± 0.6	21.1 ± 0.6
[1], x1 = 0.1	–	–	–	–	24 ± 0.6	23.3 ± 0.6	22.5 ± 0.6	21.6 ± 0.6
[1], x1 = 0.15	–	–	–	–	24.4 ± 0.6	23.7 ± 0.6	22.8 ± 0.6	21.9 ± 0.6
[1], x1 = 0.2	–	–	–	–	24.8 ± 0.6	24 ± 0.6	23.2 ± 0.6	22.3 ± 0.6
[1], x1 = 0.25	–	–	–	–	25.1 ± 0.6	24.3 ± 0.6	23.4 ± 0.6	22.6 ± 0.6
[1], x1 = 0.3	–	–	–	–	25.3 ± 0.6	24.5 ± 0.6	23.7 ± 0.6	22.8 ± 0.6
[1], x1 = 0.35	–	–	–	–	25.5 ± 0.6	24.8 ± 0.6	23.9 ± 0.6	23 ± 0.6
[1], x1 = 0.4	–	–	–	–	25.7 ± 0.6	24.9 ± 0.6	24.1 ± 0.6	23.2 ± 0.6
[1], x1 = 0.45	–	–	–	–	25.9 ± 0.6	25.1 ± 0.6	24.2 ± 0.6	23.4 ± 0.6
[1], x1 = 0.5	–	–	–	–	26.1 ± 0.6	25.3 ± 0.6	24.4 ± 0.6	23.5 ± 0.6
[1], x1 = 0.55	–	–	–	–	26.2 ± 0.6	25.4 ± 0.6	24.5 ± 0.6	23.7 ± 0.6
[1], x1 = 0.6	–	–	–	–	26.3 ± 0.6	25.6 ± 0.6	24.7 ± 0.6	23.8 ± 0.6
[1], x1 = 0.65	–	–	–	–	26.5 ± 0.6	25.7 ± 0.6	24.8 ± 0.6	24 ± 0.6
[1], x1 = 0.7	–	–	–	–	26.6 ± 0.6	25.8 ± 0.6	24.9 ± 0.6	24.1 ± 0.6
[1], x1 = 0.75	–	–	–	–	26.7 ± 0.6	25.9 ± 0.6	25 ± 0.6	24.2 ± 0.6
[1], x1 = 0.8	–	–	–	–	26.8 ± 0.6	26 ± 0.6	25.1 ± 0.6	24.3 ± 0.6
[1], x1 = 0.85	–	–	–	–	26.9 ± 0.6	26.1 ± 0.6	25.2 ± 0.6	24.4 ± 0.6
[1], x1 = 0.9	–	–	–	–	27 ± 0.6	26.2 ± 0.6	25.3 ± 0.6	24.5 ± 0.6
[1], x1 = 0.95	–	–	–	–	27.1 ± 0.6	26.3 ± 0.6	25.4 ± 0.6	24.6 ± 0.6
[1], x1 = 1	–	–	–	–	27.2 ± 0.6	26.4 ± 0.6	25.5 ± 0.6	24.7 ± 0.6
[2], x1 = 0.05	1.37185 ± 0.00031	1.36779 ± 0.00032	1.36356 ± 0.00031	1.35953 ± 0.00032	–	–	–	–
[2], x1 = 0.1	1.37876 ± 0.00031	1.37462 ± 0.00031	1.37036 ± 0.00031	1.36625 ± 0.00032	–	–	–	–
[2], x1 = 0.15	1.38444 ± 0.00031	1.38028 ± 0.00032	1.37601 ± 0.00032	1.37184 ± 0.00032	–	–	–	–
[2], x1 = 0.2	1.38922 ± 0.00031	1.38502 ± 0.00032	1.38074 ± 0.00032	1.37654 ± 0.00032	–	–	–	–
[2], x1 = 0.25	1.39327 ± 0.00032	1.38905 ± 0.00032	1.38477 ± 0.00032	1.38054 ± 0.00032	–	–	–	–
[2], x1 = 0.3	1.39676 ± 0.00032	1.39252 ± 0.00032	1.38823 ± 0.00032	1.38398 ± 0.00032	–	–	–	–
[2], x1 = 0.35	1.39979 ± 0.00032	1.39553 ± 0.00032	1.39125 ± 0.00032	1.38698 ± 0.00032	–	–	–	–
[2], x1 = 0.4	1.40245 ± 0.00032	1.39818 ± 0.00032	1.39389 ± 0.00032	1.38961 ± 0.00032	–	–	–	–
[2], x1 = 0.45	1.40481 ± 0.00032	1.40053 ± 0.00032	1.39624 ± 0.00032	1.39195 ± 0.00032	–	–	–	–
[2], x1 = 0.5	1.40692 ± 0.00032	1.40263 ± 0.00032	1.39835 ± 0.00032	1.39403 ± 0.00032	–	–	–	–
[2], x1 = 0.55	1.40882 ± 0.00032	1.40451 ± 0.00032	1.40023 ± 0.00032	1.39591 ± 0.00032	–	–	–	–
[2], x1 = 0.6	1.41053 ± 0.00032	1.40621 ± 0.00032	1.40193 ± 0.00032	1.3976 ± 0.00032	–	–	–	–
[2], x1 = 0.65	1.41208 ± 0.00032	1.40776 ± 0.00032	1.40348 ± 0.00032	1.39914 ± 0.00032	–	–	–	–
[2], x1 = 0.7	1.4135 ± 0.00032	1.40917 ± 0.00032	1.40489 ± 0.00032	1.40054 ± 0.00032	–	–	–	–
[2], x1 = 0.75	1.4148 ± 0.00032	1.41047 ± 0.00032	1.40619 ± 0.00032	1.40183 ± 0.00032	–	–	–	–
[2], x1 = 0.8	1.41599 ± 0.00032	1.41166 ± 0.00032	1.40739 ± 0.00032	1.40302 ± 0.00032	–	–	–	–
[2], x1 = 0.85	1.41709 ± 0.00033	1.41276 ± 0.00033	1.4085 ± 0.00033	1.40412 ± 0.00033	–	–	–	–
[2], x1 = 0.9	1.4181 ± 0.00033	1.41378 ± 0.00033	1.40952 ± 0.00033	1.40515 ± 0.00033	–	–	–	–
[2], x1 = 0.95	1.41904 ± 0.00033	1.41472 ± 0.00033	1.41047 ± 0.00033	1.40611 ± 0.00033	–	–	–	–
[2], x1 = 1	1.41991 ± 0.00033	1.4156 ± 0.00033	1.41137 ± 0.00033	1.40702 ± 0.00033	–	–	–	–
